The results in this text go back to US6143764A, “Quinoline and quinazoline derivatives inhibiting platelet-derived growth factor receptor autophosphorylation and pharmaceutical compositions containing the same” (priority 1995, dated 2000).

T1 sequence (Q05030 32-1097): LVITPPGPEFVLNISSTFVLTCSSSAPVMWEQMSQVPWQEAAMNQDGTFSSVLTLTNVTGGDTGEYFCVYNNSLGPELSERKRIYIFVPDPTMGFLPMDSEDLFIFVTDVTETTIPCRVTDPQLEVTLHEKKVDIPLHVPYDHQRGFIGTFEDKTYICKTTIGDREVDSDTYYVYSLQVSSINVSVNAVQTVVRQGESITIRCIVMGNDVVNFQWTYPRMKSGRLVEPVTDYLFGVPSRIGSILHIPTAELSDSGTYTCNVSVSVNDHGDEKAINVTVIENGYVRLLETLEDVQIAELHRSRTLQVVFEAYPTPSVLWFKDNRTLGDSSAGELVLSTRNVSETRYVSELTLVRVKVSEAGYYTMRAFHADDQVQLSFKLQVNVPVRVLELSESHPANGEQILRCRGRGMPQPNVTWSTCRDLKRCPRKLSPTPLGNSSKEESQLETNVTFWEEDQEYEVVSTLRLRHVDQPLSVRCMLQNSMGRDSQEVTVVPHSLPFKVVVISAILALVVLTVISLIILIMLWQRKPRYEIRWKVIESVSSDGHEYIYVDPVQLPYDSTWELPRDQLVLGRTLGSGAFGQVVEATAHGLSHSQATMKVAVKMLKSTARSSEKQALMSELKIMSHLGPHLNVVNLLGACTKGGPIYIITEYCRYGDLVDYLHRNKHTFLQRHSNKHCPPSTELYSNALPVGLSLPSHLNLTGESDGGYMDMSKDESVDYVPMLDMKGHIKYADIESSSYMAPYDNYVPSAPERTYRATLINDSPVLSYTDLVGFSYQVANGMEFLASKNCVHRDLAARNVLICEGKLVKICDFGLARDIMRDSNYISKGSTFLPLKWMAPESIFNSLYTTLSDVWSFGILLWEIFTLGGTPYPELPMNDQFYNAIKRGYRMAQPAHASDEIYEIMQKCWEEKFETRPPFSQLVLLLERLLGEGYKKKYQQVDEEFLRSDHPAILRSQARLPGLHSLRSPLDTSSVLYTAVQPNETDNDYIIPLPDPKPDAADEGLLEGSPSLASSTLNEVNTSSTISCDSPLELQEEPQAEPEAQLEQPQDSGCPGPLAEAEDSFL

This assay has as its target T1, PDGF receptor (Rattus norvegicus, UniProt Q05030).
T1 construct: cultured rat mesangial cells which are known to have the PDGF receptor; endogenous in cells; host or cells: primary mesangial cells cultured from glomeruli of Wistar-Kyoto rats (Charles River Japan), more than 5 passages
Put plainly: PDGF receptor autophosphorylation inhibition in cultured rat mesangial cells. Conditions: PDGF-BB 50 ng/ml. The format is cell-based. As for the experimental part:
1. Cultivation of rat mesangial cells
The glomerulus-derived adhesive cells were subcultured several times to obtain mesangial cells. The mesangial cells subcultured more than 5 passages were used for the assay.
2.Evaluation of PDGF receptor autophosphorylation inhibition
The mesangial cells were seeded in 24-well flat-bottom microtiter plates and then cultured in the medium containing 10% FCS for 2 days. When the cells were grown to about 3×10^4 cells per well, the medium was changed to the medium containing 0.5% FCS, the cultivation was continued for another 3 days, and then cell growth was arrested. The culture medium was removed, the adhered cells were washed with 500 μl of the medium, and 250 μl of the medium containing 0.1% bovine serum albumin (hereinafter abbreviated to BSA) was then added. A test drug dissolved in 1.38 μl of dimethyl sulfoxide (hereinafter abbreviated to DMSO) was added to this culture medium, and the admixture was incubated at 37° C. for 1 hour. Recombinant human platelet-derived growth factor BB chain (hereinafter abbreviated to PDGF-BB) was dissolved in the medium containing 0.1% BSA, 25 μl per well of the solution was added at final 50 ng/ml, and the incubation was continued at 37° C. for 10 minutes. […] The cells were allowed to stand at 4° C. for 30 minutes for lysis, and the resulting solution was thoroughly admixed with an equal amount of Tris-buffered physiological saline containing 1% sodium dodecyl sulfate (hereinafter abbreviated to SDS). […] After the electrophoresis, proteins in the gel were electrically transferred to a PVDF filter, which was then subjected to Western blotting using monoclonal antibodies against phosphotyrosine. Bands of PDGF receptor (molecular weight: about 180 Kda) which were autophosphorylated due to the addition of PDGF-BB were quantitated by a densitometer. Autophosphorylation rates for individual wells with drugs were calculated by setting measurements for PDGF receptor autophosphorylation in the wells without drugs in the presence and absence of PDGF-BB as 100% and 0%, respectively.
What is called IC50 is the concentration that gives 50% inhibition. Take `COc1cc2nccc(Oc3ccc(NC(=O)Nc4cccc(C(=O)O)c4)cc3)c2cc1OC` [Compound 283, N-(3-Hydroxycarbonylphenyl)-N'-{4-[(6,7-dimethoxy-4-quinolyl)oxy]phenyl}urea]: 0.002 µM corresponded to half-maximal inhibition (IC50).

`COc1cc2nccc(Oc3ccc(NC(=O)Nc4c(F)cc(F)cc4F)cc3)c2cc1OC` [Compound 256, N-(2,4,6-Trifluorophenyl)-N'-{4-[(6,7-dimethoxy-4-quinolyl)oxy]phenyl}urea] came in with an IC50 of 0.004 µM.

The compound `COc1cc2nccc(Oc3ccc(NC(=O)NCc4ccc(C(C)(C)C)cc4)cc3)c2cc1OC` [Compound 248, N-[(4-tert-Butylphenyl)methyl]-N'-{4-[(6,7-dimethoxy-4-quinolyl)oxy]phenyl}urea] displayed an IC50 of 0.063 µM.

The compound `COc1ccc(OC)c(NC(=O)Nc2ccc(Oc3ccnc4cc(OC)c(OC)cc34)cc2)c1` [Compound 258, N-(2,5-Dimethoxyphenyl)-N'-{4-[(6,7-dimethoxy-4-quinolyl)oxy]phenyl}urea] came in with an IC50 of 0.007 µM.

`COc1cc2nccc(Oc3ccc(NC(=O)c4ccc([N+](=O)[O-])cc4)cc3)c2cc1OC` [Compound 66, N-{4-[(6,7-Dimethoxy-4-quinolinyl)oxy]phenyl}-(4-nitrophenyl)carboxamide] displayed an IC50 of 0.13 µM.

As for `COc1cc2nccc(Oc3ccc(NC(=O)Nc4ccc(Oc5ccc(F)cc5)nc4)cc3)c2cc1OC` [Compound 279, N-{5-[2-(4-fluoro)phenoxy]-pyridyl}-N'-(4-[(6,7-dimethoxy-4-quinolyl)oxy]phenyl}urea], the half-inhibitory concentration (IC50) came to 0.029 µM.

Compound `CCCCNC(=O)Nc1ccc(Oc2ncnc3cc(OC)c(OC)cc23)cc1` [Compound 220, N-(4-[(6,7-Dimethoxy-4-quinazolinyl)oxy]phenyl)-N'-n-butylurea] yielded an IC50 of 0.009 µM.

Take `COc1cc2nccc(Oc3ccc(NC(=O)NC(=O)c4ccccn4)cc3)c2cc1OC` [Compound 240, N-{4-[(6,7-dimethoxy-4-quinolyl)oxy]phenyl}-N'-(2-pyridinecarbonyl)urea]: the IC50 came out at 0.15 µM.

`COc1cc2nccc(Oc3ccc(NC(=O)Nc4cccc(C)c4)cc3)c2cc1OC` [Compound 55, N-{4-[(6,7-Dimethoxy-4-quinolyl)oxy]phenyl}-N'-(3-methylphenyl)urea] returned a concentration for half-maximal inhibition (IC50) of 0.003 µM.

For `COc1cc2nccc(Oc3ccc(NC(=O)Nc4ccccc4SC)cc3)c2cc1OC` [Compound 276, N-(2-Methylthiophenyl)-N'-{4-[(6,7-dimethoxy-4-quinolyl)oxy]phenyl}urea], the midpoint of inhibition, the IC50, lay at 0.005 µM.

`COc1cc2nccc(Oc3ccc(NC(=O)Nc4ccc(O)cc4)cc3)c2cc1OC` [Compound 269, N-(4-Hydroxyphenyl)-N'-{4-[(6,7-dimethoxy-4-quinolyl)oxy]phenyl}urea]: the IC50 was determined as 0.008 µM.

As for `COc1cc2nccc(Oc3ccc(NC(=O)Nc4cc(OC)c(OC)c(OC)c4)cc3)c2cc1OC` [Compound 271, N-(3,4,5-Trimethoxyphenyl)-N'-{4-[(6,7-dimethoxy-4-quinolyl)oxy]phenyl}urea], the IC50 is 0.004 µM.

In turn, `COc1cc2nccc(Oc3ccc(NC(=O)c4ccc(N(C)C)cc4)cc3)c2cc1OC` [Compound 67, N-{4-[(6,7-Dimethoxy-4-quinolinyl)oxy]phenyl}-(N,N-dimethylaminophenyl)carboxamide] returned an IC50 of 0.11 µM.

The compound `COc1cc2nccc(Oc3ccc(NC(=O)NC(=O)c4ccccc4)cc3)c2cc1OC` [Compound 189, N-Benzoyl-N'-{4-[(6,7-dimethoxy-4-quinolyl)oxy]phenyl}urea] gave an IC50 of 0.011 µM.

Regarding `COc1cc2nccc(Oc3ccc(C(=O)c4ccc(N5CCOCC5)cc4)cc3)c2cc1OC` [Compound 288, {4-[(6,7-Dimethoxy-4-quinolyl)oxy]phenyl}[4-morpholinophenyl]methanone], the IC50 was found to be 0.024 µM.

The compound `COc1cc2nccc(Oc3ccc(NC(=O)NCc4ccc(N(C)C)cc4)cc3)c2cc1OC` [Compound 251, N-{4-[(6,7-Dimethoxy-4-quinolyl)oxy]phenyl}-N'-[(4-dimethylaminophenyl)methyl]urea] registered an IC50 of 0.036 µM.

`COc1cc2nccc(Oc3ccc(NC(=O)Nc4ccc([N+](=O)[O-])cc4)cc3)c2cc1OC` [Compound 46, N-{4-[(6,7-Dimethoxy-4-quinolinyl)oxy]phenyl}-N'-(4-nitrophenyl)urea]: the midpoint of inhibition, the IC50, lay at 0.021 µM.

The compound `COc1cc2nccc(Oc3ccc(NC(=O)Nc4ccc(Oc5ccccc5)cc4)cc3)c2cc1OC` [Compound 50, N-{4-[(6,7-Dimethoxy-4-quinolinyl)oxy]phenyl}-N'-(4-phenoxyphenyl)urea] gave a half-inhibitory concentration (IC50) of 0.067 µM.

Regarding `COc1cc2nccc(Oc3ccc(NC(=O)Nc4ccccc4C(F)(F)F)cc3)c2cc1OC` [Compound 54], the IC50 was determined as 0.003 µM.

With `COc1cc2nccc(Oc3ccc(NC(=O)Nc4ccc(C)cc4)cc3)c2cc1OC` [Compound 131], the IC50 came out at 0.003 µM.

`COc1ccc(NC(=O)N(C)c2ccc(Oc3ccnc4cc(OC)c(OC)cc34)cc2)cc1` [Compound 200, N-Methyl-N-{4-[(6,7-dimethoxy-4-quinolyl)oxy]phenyl}-N'-(4-methoxyphenyl)urea] registered an IC50 of 0.004 µM.

With `COc1cc2nccc(Oc3ccc(NC(=O)Nc4ccc5c(c4)CCC5)cc3)c2cc1OC` [Compound 197, N-(5-Indanyl)-N'-{4-[(6,7-dimethoxy-4-quinolyl)oxy]phenyl}urea], the IC50 amounted to 0.01 µM.

Compound `COc1cc2nccc(Oc3ccc(C(=O)c4ccc(C(F)(F)F)cc4)cc3)c2cc1OC` [Compound 29, (4-Trifluoromethylphenyl){4-[(6,7-dimethoxy-4-quinolyl)oxy]phenyl}methanone] registered an IC50 of 0.8 µM.

Turning to `COc1cc(OC)c(NC(=O)Nc2ccc(Oc3ccnc4cc(OC)c(OC)cc34)cc2)cc1Cl` [Compound 241, N-(3-Chloro-4,6-dimethoxyphenyl)-N'-{4-[(6,7-dimethoxy-4-quinolyl)oxy]phenyl}urea], the IC50 amounted to 0.018 µM.

Compound `COc1cc2nccc(Oc3ccc(NC(=O)Nc4ccc(Cl)cc4N)cc3)c2cc1OC` [Compound 239, N-(2-Amino-4-chlorophenyl)-N'-{4-[(6,7-dimethoxy-4-quinolyl)oxy]phenyl}urea] yielded an IC50 of 0.005 µM.

The compound `COc1cc2nccc(Oc3cccc(NC(=O)Nc4ccccc4C(F)(F)F)c3)c2cc1OC` [Compound 94] came in with an IC50 of 0.023 µM.

`COc1cc2nccc(Oc3ccc(NC(=O)C4CCCC4)cc3)c2cc1OC` [Compound 79, N-{4-[(6,7-Dimethoxy-4-quinolinyl)oxy]phenyl}cyclopentanecarboxamide] yielded an IC50 of 0.34 µM.

As for `COc1cc2nccc(Oc3ccc(NC(=O)Nc4ccc(C(C)=O)cc4)cc3)c2cc1OC` [Compound 49, N-(4-Acetylphenyl)-N'-{4-[(6,7-dimethoxy-4-quinolinyl)oxy]phenyl}urea], the midpoint of inhibition, the IC50, lay at 0.018 µM.

`COc1cc2nccc(Oc3ccc4[nH]ccc4c3)c2cc1OC` [Compound 16, 6,7-Dimethoxy-4-(5-indolyloxy)quinoline] showed an IC50 of 0.05 µM.

Regarding `COc1cc2nccc(Oc3ccc(NC(=O)Nc4c(Cl)cccc4Cl)cc3)c2cc1OC` [Compound 230, N-(2,6-Dichlorophenyl)-N'-{4-[(6,7-dimethoxy-4-quinolyl)oxy]phenyl}urea], the concentration for half-maximal inhibition (IC50) came out at 0.034 µM.

`COc1cc2nccc(Oc3ccc(NC(=O)Nc4ccc5c(c4)OCCO5)cc3)c2cc1OC` [Compound 199, N-(3,4-Ethylenedioxyphenyl)-N'-{4-[(6,7-dimethoxy-4-quinolyl)oxy]phenyl}urea]: half-maximal inhibition (IC50) was put at 0.003 µM.

Turning to `CCCCc1ccccc1NC(=O)Nc1ccc(Oc2ccnc3cc(OC)c(OC)cc23)cc1` [Compound 232, N-(2-n-Butylphenyl)-N'-(4-[(6,7-dimethoxy-4-quinolyl)oxy]phenyl}urea], the IC50 is 0.018 µM.

`COc1cc2nccc(Oc3ccc(NC(=O)Nc4c(C)cccc4Cl)cc3)c2cc1OC` [Compound 226, N-(2-Chloro-6-methylphenyl)-N'-{4-[(6,7-dimethoxy-4-quinolyl)oxy]phenyl}urea] registered an IC50 of 0.011 µM.

`COc1cc2nccc(Oc3ccc(NC(=O)Nc4ccc(OC(C)=O)cc4)cc3)c2cc1OC` [Compound 270, N-(4-Acetoxyphenyl)-N'-{4-[(6,7-dimethoxy-4-quinolyl)oxy]phenyl}urea] displayed an IC50 of 0.006 µM.

Regarding `COCCNC(=O)Nc1ccc(Oc2ccnc3cc(OC)c(OC)cc23)cc1` [Compound 246, N-(2-Methoxyethyl)-N'-{4-[(6,7-dimethoxy-4-quinolyl)oxy]phenyl}urea], the IC50 was found to be 0.013 µM.

As for `COc1cc2nccc(Oc3ccc(NC(=O)NCc4ccncc4)cc3)c2cc1OC` [Compound 250], the IC50 stood at 0.017 µM.

Compound `COc1cc2nccc(Oc3ccc(C(=O)c4ccc(N5CCCCC5)cc4)cc3)c2cc1OC` [Compound 290, {4-[(6,7-Dimethoxy-4-quinolyl)oxy]phenyl}[4-piperidinophenyl]methanone] yielded a concentration for half-maximal inhibition (IC50) of 0.055 µM.

Compound `COc1cc2nccc(Oc3ccc(NC(=O)Nc4cccc(C(F)(F)F)c4)cc3)c2cc1OC` [Compound 53] returned an IC50 of 0.01 µM.
